Data: paper PMC11945486, “TAS1R2/TAS1R3 Single-Nucleotide Polymorphisms Affect Sweet Taste Receptor Activation by Sweeteners: The SWEET Project” (Nutrients, 2025)
Where two headings read alike, the source gives them in different places. No end group written: not given here.

T1: human TAS1R2-WT/TAS1R3-G367C (Homo sapiens, UniProt Q7RTX0+Q8TE23, G367C)
T1 construct: expressed in transfected cells; host or cells: HEK293T stably expressing Gα16gust44
T1 sequence (Q8TE23 20-839): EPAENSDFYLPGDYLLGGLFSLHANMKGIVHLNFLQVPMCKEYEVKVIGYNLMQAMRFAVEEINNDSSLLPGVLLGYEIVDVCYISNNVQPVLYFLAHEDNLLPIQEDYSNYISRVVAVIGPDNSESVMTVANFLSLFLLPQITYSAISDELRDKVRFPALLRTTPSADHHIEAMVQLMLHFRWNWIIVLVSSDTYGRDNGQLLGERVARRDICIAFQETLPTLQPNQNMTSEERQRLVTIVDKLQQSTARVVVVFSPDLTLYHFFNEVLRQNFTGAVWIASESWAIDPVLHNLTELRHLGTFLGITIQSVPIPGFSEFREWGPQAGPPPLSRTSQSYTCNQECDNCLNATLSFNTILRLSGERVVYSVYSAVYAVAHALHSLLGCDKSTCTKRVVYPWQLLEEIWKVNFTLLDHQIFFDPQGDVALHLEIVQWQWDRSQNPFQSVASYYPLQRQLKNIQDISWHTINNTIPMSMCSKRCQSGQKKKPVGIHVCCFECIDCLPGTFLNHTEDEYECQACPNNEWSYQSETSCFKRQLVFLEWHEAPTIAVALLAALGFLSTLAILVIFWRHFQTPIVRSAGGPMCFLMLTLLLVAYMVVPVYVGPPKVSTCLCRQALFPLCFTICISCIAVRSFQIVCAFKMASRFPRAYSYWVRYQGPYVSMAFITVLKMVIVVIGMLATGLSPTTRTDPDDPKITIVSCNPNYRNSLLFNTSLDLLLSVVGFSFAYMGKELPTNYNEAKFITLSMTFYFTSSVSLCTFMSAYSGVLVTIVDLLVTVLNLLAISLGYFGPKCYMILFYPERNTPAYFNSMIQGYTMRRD
T1 sequence (Q7RTX0 21-852 G367C): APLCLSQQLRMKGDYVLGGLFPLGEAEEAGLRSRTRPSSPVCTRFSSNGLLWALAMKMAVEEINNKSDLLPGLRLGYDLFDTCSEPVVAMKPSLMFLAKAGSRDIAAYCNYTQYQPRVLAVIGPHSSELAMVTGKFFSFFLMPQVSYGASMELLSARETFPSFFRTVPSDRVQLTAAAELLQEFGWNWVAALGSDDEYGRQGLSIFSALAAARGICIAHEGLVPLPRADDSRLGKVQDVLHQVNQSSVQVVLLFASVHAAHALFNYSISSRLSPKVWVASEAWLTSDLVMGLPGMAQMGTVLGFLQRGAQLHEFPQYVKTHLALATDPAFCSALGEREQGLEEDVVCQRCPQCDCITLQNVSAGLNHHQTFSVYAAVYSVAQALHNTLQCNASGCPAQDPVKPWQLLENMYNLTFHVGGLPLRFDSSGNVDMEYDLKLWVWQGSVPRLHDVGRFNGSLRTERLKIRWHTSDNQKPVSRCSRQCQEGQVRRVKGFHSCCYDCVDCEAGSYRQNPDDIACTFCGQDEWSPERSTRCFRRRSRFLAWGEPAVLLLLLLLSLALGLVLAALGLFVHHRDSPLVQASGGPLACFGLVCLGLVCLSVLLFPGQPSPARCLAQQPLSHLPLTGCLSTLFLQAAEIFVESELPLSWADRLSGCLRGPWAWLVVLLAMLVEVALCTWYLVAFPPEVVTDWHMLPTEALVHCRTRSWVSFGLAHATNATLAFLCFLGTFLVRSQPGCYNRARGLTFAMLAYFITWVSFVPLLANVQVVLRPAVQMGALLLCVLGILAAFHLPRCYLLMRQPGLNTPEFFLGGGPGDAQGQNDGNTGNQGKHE


Molecular target: T1, human TAS1R2-WT/TAS1R3-G367C
Test: Calcium mobilisation assay, TAS1R2-WT with TAS1R3 variant G367C
Assay type: cell-based
Conditions: for Max ΔF/F0: maximal signal amplitude
Text: The coding sequences for TAS1R2 and TAS1R3 were commercially synthesised, and the human codon was optimised for expression in human cells. The coding sequences of human TAS1R2 and TAS1R3 were subcloned and inserted into the mammalian expression vectors pcDNA6/myc-HisA and pcDNA4/myc-HisA (Invitrogen; Thermo Fisher Scientific; Illkirch, France) between the EcoRI and NotI restriction sites, generating the plasmids pcDNA6-TAS1R2 and pcDNA4-TAS1R3, respectively. To increase protein expression in mammalian cells, an upstream start codon was used, which was a sequence called MAX, corresponding to the QBI SP163 element also described in pcDNA4-HisMax (Invitrogen; Thermo Fisher Scientific; Illkirch, France). To measure the expression level of the receptor by immunohistochemistry, we used the FLAG sequence ([…]) in the C-terminal position, which encodes the FLAG tag epitope. SNP variants of TAS1R2 and TAS1R3 were constructed based on […], respectively, using site-directed mutagenesis (Genewiz; Leipzig, Germany).
The HEK293T cells were kindly provided by Jay P. Slack (Givaudan Flavors Corporation; Cincinnati, OH, USA). HEK293T cells stably transfected with Gα16gust44 [43, 67] were seeded in poly-D-lysine-coated clear-bottom black 96-well plates (0.35 × 10^5 cells/well) in high-glucose DMEM supplemented with 2 mM GlutaMAX, 10% dialysed foetal bovine serum with penicillin/streptomycin and G418 (400 μg/mL) at 37 °C and 6.3% CO2 in a humidified atmosphere as previously reported. […] As a negative control, HEK293T cells were mock-transfected with the empty expression vector. After a further 24 h of incubation, the HEK293T cells were washed with C1 buffer (130 mM NaCl, 5 mM KCl, 10 mM HEPES pH 7.4 and 2 mM CaCl2). The 96-well plates containing the cells were then stimulated with sweet-tasting compounds. […] Different concentration ranges were tested depending on the sweet compound injected. The Ca^2+ changes were expressed as fractional changes in fluorescent light intensity: ΔF/F = (F − F0)/F0, where F was the fluorescent light intensity at each point, and F0 was the value of emitted fluorescent light prior to stimulus application. To calculate dose–response relationships, the changes in fluorescence upon stimulus application were averaged, mock-subtracted and baseline-corrected. The dose–response data obtained were adjusted using a 4-parameter logistic equation. The half-maximal effective concentrations (EC50 values) and maximal signal amplitudes were calculated using SigmaPlot software (version 15.0) (Systat Software; San Jose, CA, USA).
For in vitro calcium mobilisation assay performed on hTAS1R2-SNPs, hTAS1R3-SNPs and mTAS1R3-I60T, 6 to 7 concentrations were tested for each sweet compound, plus buffer alone. All concentration–receptor combinations were measured in duplicate, and each experiment was repeated at least 4 times (8 wells/concentration). Results were expressed for each concentration as ΔF/F mean ± SEM and represented as dose–response curves.

R1 = Variant EC50/WT EC50 | Max ΔF/F0 | EC50 (read-out: EC50) | EC50 (brazzein) | Molecule
0.7 | 0.06 ± 0.01 | 443 ± 121 µM | – | CC1=CC(=O)NS(=O)(=O)O1 [Acesulfame K, acesulfame K]
1.6 | 0.75 ± 0.05 | 81.3 ± 13.1 µM | – | COc1ccc(CCC(=O)c2c(O)cc(O[C@@H]3O[C@H](CO)[C@@H](O)[C@H](O)[C@H]3O[C@@H]3O[C@@H](C)[C@H](O)[C@@H](O)[C@H]3O)cc2O)cc1O [NHDC, neohesperidin dihydrochalcone]
1.6 | 0.31 ± 0.01 | 1.95 ± 0.09 µM | – | COC(=O)[C@H](Cc1ccccc1)NC(=O)[C@H](CC(=O)O)NCCC(C)(C)C [Neotame]
2.3 | 1.49 ± 0.24 | 32 ± 17.1 µM | – | C=C(C)[C@@H]1CC=C(/C=N/O)CC1 [Perillartine, perillartine]
1.2 | 0.35 ± 0.01 | 47.3 ± 1.9 µM | – | C=C1C[C@@]23CC[C@H]4[C@@](C)(CCC[C@@]4(C)C(=O)O[C@@H]4O[C@H](CO)[C@@H](O)[C@H](O[C@@H]5O[C@H](CO)[C@@H](O)[C@H](O)[C@H]5O)[C@H]4O[C@@H]4O[C@H](CO)[C@@H](O)[C@H](O)[C@H]4O)[C@@H]2CC[C@]1(O[C@@H]1O[C@H](CO)[C@@H](O)[C@H](O[C@@H]2O[C@H](CO)[C@@H](O)[C@H](O)[C@H]2O)[C@H]1O[C@@H]1O[C@H](CO)[C@@H](O)[C@H](O)[C@H]1O)C3 [Rebaudioside M, rebaudioside M]
1.7 | 0.32 ± 0.01 | 182 ± 7 µM | – | OC[C@H]1O[C@H](O[C@]2(CCl)O[C@H](CCl)[C@@H](O)[C@@H]2O)[C@H](O)[C@@H](O)[C@H]1Cl [Sucralose]
1.6 | 0.72 ± 0.01 | – | 181.7 ± 6.9 µg/mL | brazzein (QDKCKKVYENYPVSKCQLANQCNYDCKLDKHARSGECFYDEKRNLQCICDYCEY; ends and bridges not checked; cysteine pairing not given here; UniProt P56552 1-54, looked up) [sweet-tasting protein obtained by recombinant production using the yeast Pichia pastoris]
1.4 | 0.52 ± 0.01 | – | – | thaumatin
– | – | 14.8 ± 0.5 µM | – | thaumatin (protein, Eight disulfides, sweet-tasting plant protein, E957) ATFEIVNRCSYTVWAAASKGDAALDAGGRQLNSGESWTINVEPGTKGGKIWARTDCYFDDSGSGICKTGDCGGLLRCKRFGRPPTTLAEFSLNQYGKDYIDISNIKGFNVPMDFSPTTRGCRGVRCAADIVGQCPAKLKAPGGGCNDACTVFQTSEYCCTTGKCGPTEYSRFFKRLCPDAFSYVLDKPTTVTCPGSSNYRVTFCPTA

Molecule | R1 = Variant EC50/WT EC50 | Max ΔF/F0 | EC50 (read-out: EC50) | EC50 (brazzein)
O=S(=O)(O)NC1CCCCC1 [Cyclamate, cyclamate] | – | – | 2120 ± 34 µM | –
C[C@H](CC[C@@H](O[C@@H]1O[C@H](CO[C@@H]2O[C@H](CO)[C@@H](O)[C@H](O)[C@H]2O)[C@@H](O)[C@H](O)[C@H]1O[C@@H]1O[C@H](CO)[C@@H](O)[C@H](O)[C@H]1O)C(C)(C)O)[C@H]1CC[C@@]2(C)[C@@H]3CC=C4[C@@H](CC[C@H](O[C@@H]5O[C@H](CO[C@@H]6O[C@H](CO)[C@@H](O)[C@H](O)[C@H]6O)[C@@H](O)[C@H](O)[C@H]5O)C4(C)C)[C@]3(C)[C@H](O)C[C@]12C [Mogroside V, mogroside V] | 2.6 | 0.60 ± 0.02 | 82.4 ± 5.2 µM | –
